22 compounds from patent US10040781B2, “Tank-binding kinase inhibitor compounds” (Gilead Sciences, Inc., priority 2014, dated 2018) can be followed below.

For one experiment, the target named is TBK1 (Homo sapiens (Human), UniProt Q9UHD2). The experiment can be described thus: TBK1 TR-FRET enzymatic assay.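 Also: phosphorylation of a biotinylated Ser/Thr peptide by purified full-length recombinant TBK1, read by TR-FRET after 240 min at 25 °C, IC50 is the geometric mean of at least four runs.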 For orientation: In TR-FRET formats the signal depends on donor and acceptor labels being close together.
In the next experiment the target is IKKε (Homo sapiens (Human), UniProt Q14164). The experiment can be described thus: IKKε TR-FRET enzymatic assay. Type of experiment: biochemical. To be noted: read-out: IKKe IC50.
In another experiment the target is hJAK2 (Homo sapiens (Human), UniProt O60674). Briefly: hJAK2 LANCE TR-FRET enzymatic assay. Type of experiment: biochemical. To be noted: read-out: JAK2 IC50.
The mark [1] stands for this setting: TR-FRET, 2×Km ATP, geometric mean of minimum four determinations.

Like-named read-outs stand apart in the source and are kept apart here. Some results are limits rather than exact numbers.

hJAK2, sequence (O60674 whole entry): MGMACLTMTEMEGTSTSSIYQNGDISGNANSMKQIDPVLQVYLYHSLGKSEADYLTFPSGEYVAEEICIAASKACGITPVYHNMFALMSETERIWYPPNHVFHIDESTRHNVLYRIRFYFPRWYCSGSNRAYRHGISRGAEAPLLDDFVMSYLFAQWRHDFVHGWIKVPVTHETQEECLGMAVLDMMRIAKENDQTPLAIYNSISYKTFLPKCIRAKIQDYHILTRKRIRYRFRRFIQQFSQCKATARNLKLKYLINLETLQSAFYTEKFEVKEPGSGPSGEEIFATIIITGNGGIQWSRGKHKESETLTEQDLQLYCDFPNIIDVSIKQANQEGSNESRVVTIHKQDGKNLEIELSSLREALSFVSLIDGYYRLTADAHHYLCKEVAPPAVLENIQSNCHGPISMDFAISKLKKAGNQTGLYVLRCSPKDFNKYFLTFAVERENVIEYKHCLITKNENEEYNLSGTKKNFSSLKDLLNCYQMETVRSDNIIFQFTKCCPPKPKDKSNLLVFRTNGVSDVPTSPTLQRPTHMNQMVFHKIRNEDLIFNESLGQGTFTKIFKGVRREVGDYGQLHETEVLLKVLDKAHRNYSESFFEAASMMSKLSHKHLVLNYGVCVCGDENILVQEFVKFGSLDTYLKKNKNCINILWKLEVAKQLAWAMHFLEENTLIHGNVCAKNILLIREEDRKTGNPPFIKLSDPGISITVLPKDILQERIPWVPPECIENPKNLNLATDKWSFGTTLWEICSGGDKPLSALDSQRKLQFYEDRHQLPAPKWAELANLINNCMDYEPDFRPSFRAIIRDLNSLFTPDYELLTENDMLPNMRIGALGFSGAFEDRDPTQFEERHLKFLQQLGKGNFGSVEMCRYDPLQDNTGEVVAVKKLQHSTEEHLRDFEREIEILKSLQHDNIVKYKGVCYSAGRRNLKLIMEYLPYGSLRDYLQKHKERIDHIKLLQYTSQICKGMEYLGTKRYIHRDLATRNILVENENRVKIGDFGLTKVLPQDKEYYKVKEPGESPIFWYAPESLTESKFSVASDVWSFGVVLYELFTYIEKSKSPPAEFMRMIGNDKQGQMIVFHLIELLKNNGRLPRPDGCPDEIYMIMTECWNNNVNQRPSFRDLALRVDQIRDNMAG
IKKε, sequence (Q14164 whole entry): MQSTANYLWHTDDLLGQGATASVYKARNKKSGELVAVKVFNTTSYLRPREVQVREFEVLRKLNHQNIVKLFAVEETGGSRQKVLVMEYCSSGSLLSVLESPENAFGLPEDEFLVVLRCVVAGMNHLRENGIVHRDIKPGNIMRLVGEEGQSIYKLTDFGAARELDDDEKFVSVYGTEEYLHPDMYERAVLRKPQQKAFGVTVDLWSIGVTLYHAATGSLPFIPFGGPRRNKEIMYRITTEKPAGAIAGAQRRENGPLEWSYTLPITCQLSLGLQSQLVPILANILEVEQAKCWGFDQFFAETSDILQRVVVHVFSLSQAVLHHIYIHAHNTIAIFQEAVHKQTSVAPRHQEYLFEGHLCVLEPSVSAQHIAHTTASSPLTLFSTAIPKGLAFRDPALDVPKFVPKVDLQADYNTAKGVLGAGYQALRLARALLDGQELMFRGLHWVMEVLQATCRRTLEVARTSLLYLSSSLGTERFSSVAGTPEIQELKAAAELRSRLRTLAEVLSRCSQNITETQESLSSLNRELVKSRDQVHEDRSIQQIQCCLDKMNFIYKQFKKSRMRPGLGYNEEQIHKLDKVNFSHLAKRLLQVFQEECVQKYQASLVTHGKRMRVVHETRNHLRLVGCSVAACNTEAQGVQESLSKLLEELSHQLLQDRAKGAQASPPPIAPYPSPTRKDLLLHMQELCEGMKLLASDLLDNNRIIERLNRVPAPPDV
TBK1, sequence (Q9UHD2 whole entry): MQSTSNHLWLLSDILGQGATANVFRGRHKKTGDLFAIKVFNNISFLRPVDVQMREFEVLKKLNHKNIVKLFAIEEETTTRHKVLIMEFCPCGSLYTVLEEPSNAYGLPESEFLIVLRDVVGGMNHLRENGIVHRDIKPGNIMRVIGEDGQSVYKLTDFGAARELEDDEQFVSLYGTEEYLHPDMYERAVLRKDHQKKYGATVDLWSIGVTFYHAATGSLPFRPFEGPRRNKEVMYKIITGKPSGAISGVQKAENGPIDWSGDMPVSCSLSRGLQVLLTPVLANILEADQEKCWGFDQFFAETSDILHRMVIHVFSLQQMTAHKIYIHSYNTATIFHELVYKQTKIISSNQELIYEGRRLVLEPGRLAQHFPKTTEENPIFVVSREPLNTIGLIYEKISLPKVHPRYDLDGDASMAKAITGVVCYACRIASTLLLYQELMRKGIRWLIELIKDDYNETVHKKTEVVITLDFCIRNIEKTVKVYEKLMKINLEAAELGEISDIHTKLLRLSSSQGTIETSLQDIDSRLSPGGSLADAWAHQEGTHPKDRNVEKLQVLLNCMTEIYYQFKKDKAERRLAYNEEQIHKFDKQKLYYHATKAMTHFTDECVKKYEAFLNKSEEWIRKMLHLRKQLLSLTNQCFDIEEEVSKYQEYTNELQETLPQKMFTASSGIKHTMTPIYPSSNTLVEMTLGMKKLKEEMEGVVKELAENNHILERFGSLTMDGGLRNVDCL

For orientation: IC50 means the concentration needed to halve the response being measured. As to `N#Cc1cc(-c2ncnc(Nc3ccc(N4CCN(C5COC5)CC4)cc3)n2)ccc1OC1CCNCC1(F)F` (racemic) [Example 148, 2-((3,3-difluoropiperidin-4-yl)oxy)-5-(4-((4-(4-(oxetan-3-yl)piperazin-1-yl)phenyl)amino)-1,3,5-triazin-2-yl)benzonitrile], the figures for the IC50 against TBK1, at IKKε and on hJAK2 were 3 nM, 23 nM and 242 nM, respectively.

For the compound `C[C@H](O)C(=O)N1CC[C@H](Oc2ccc(-c3ncnc(Nc4ccc(N5CCN(C6COC6)CC5)cc4)n3)cc2C#N)C(F)(F)C1` (single isomer, unassigned) [Example 155], the figures for the IC50 at IKKε and on hJAK2 were 1 nM and 198 nM, respectively.

Turning to `N#Cc1cc(-c2ncnc(Nc3ccc(N4CCN(C5COC5)CC4)cc3)n2)ccc1O[C@H]1CCN(C(=O)[C@@H]2CCCN2)C[C@H]1F` [Example 133, 2-(((3R,4S)-3-fluoro-1-((S)-pyrrolidine-2-carbonyl)piperidin-4-yl)oxy)-5-(4-((4-(4-(oxetan-3-yl)piperazin-1-yl)phenyl)amino)-1,3,5-triazin-2-yl)benzonitrile], the IC50 at IKKε and on hJAK2 was at least 1000 nM in each case.

In the case of `Cc1nnsc1COc1ccc(-c2ncnc(Nc3ccc(N4CCN(C5COC5)CC4)cc3)n2)cc1C#N` [Example 284, 2-((4-methyl-1,2,3-thiadiazol-5-yl)methoxy)-5-(4-((4-(4-(oxetan-3-yl)piperazin-1-yl)phenyl)amino)-1,3,5-triazin-2-yl)benzonitrile], the values for the IC50 on TBK1 and at IKKε were 475 nM and at least 1000 nM, respectively.

For the compound `COC(=O)N1CC[C@H](Oc2ccc(-c3ncnc(Nc4ccc(N5CCN(C6COC6)CC5)cc4)n3)cc2C#N)[C@H](F)C1` [Example 290, (3R,4S)-methyl 4-(2-cyano-4-(4-((4-(4-(oxetan-3-yl)piperazin-1-yl)phenyl)amino)-1,3,5-triazin-2-yl)phenoxy)-3-fluoropiperidine-1-carboxylate], the IC50 was found to be 13 nM against TBK1 and 32 nM at IKKε.

For the compound `N#Cc1cc(-c2ncnc(Nc3ccc(N4CCNCC4)c(F)c3)n2)ccc1O[C@H]1CCOC[C@H]1F` [Example 298, 5-(4-((3-fluoro-4-(piperazin-1-yl)phenyl)amino)-1,3,5-triazin-2-yl)-2-(((3R,4S)-3-fluorotetrahydro-2H-pyran-4-yl)oxy)benzonitrile], the IC50 is 4 nM at TBK1 and 1 nM at IKKε.

As to `N#Cc1cc(-c2ncnc(Nc3ccc(N4CCN(C5COC5)CC4)cc3)n2)ccc1O[C@H]1CCN(C(=O)c2cnc(N)cn2)C[C@H]1F` [Example 341, 2-(((3R,4S)-1-(5-aminopyrazine-2-carbonyl)-3-fluoropiperidin-4-yl)oxy)-5-(4-((4-(4-(oxetan-3-yl)piperazin-1-yl)phenyl)amino)-1,3,5-triazin-2-yl)benzonitrile], the values for the IC50 against TBK1 and at IKKε were 2 nM and 1 nM, respectively.

Regarding `Cc1nc(C)c(C(=O)N2CC[C@H](Oc3ccc(-c4ncnc(Nc5ccc(N6CCN(C7COC7)CC6)cc5)n4)cc3C#N)[C@H](F)C2)[nH]1` [Example 345, 2-(((3R,4S)-1-(2,4-dimethyl-1H-imidazole-5-carbonyl)-3-fluoropiperidin-4-yl)oxy)-5-(4-((4-(4-(oxetan-3-yl)piperazin-1-yl)phenyl)amino)-1,3,5-triazin-2-yl)benzonitrile], the IC50 against TBK1 worked out at 10 nM; on IKKε it was 12 nM.

As for `C[C@H](O)C(=O)N1CC[C@H](Oc2ccc(-c3ncnc(Nc4ccc(N5CCC(C)(O)CC5)cc4)n3)cc2C#N)[C@H](F)C1` [Example 355, 2-(((3R,4S)-3-fluoro-1-((S)-2-hydroxypropanoyl)piperidin-4-yl)oxy)-5-(4-((4-(4-hydroxy-4-methylpiperidin-1-yl)phenyl)amino)-1,3,5-triazin-2-yl)benzonitrile], the IC50 on TBK1 stood at 4 nM; at IKKε, 2 nM.

As for `N#Cc1cc(-c2ncnc(Nc3ccc(N4CCN(C5COC5)CC4)cc3)n2)ccc1O[C@H]1CCN(C(=O)Cn2cnnc2)C[C@H]1F` [Example 377, 2-(((3R,4S)-1-(2-(4H-1,2,4-triazol-4-yl)acetyl)-3-fluoropiperidin-4-yl)oxy)-5-(4-((4-(4-(oxetan-3-yl)piperazin-1-yl)phenyl)amino)-1,3,5-triazin-2-yl)benzonitrile], the IC50 on TBK1 was determined as 37 nM; on IKKε, 129 nM.

Regarding `C[C@H](O)C(=O)N1CC[C@H](Oc2ccc(-c3ncnc(Nc4ccc(N5CCOC[C@@H]5CO)cc4)n3)cc2C#N)[C@H](F)C1` [Example 387, 2-(((3R,4S)-3-fluoro-1-((S)-2-hydroxypropanoyl)piperidin-4-yl)oxy)-5-(4-((4-((S)-3-(hydroxymethyl)morpholino)phenyl)amino)-1,3,5-triazin-2-yl)benzonitrile], the IC50 against TBK1 turned out to be 3 nM; at IKKε it was 2 nM.

Regarding `N#Cc1cc(-c2ncnc(Nc3ccc(N4CCN(C5COC5)CC4)c(F)c3)n2)ccc1O[C@H]1CCN(C(=O)[C@@H](O)CO)C[C@H]1F` [Example 409, 2-(((3R,4S)-1-((S)-2,3-dihydroxypropanoyl)-3-fluoropiperidin-4-yl)oxy)-5-(4-((3-fluoro-4-(4-(oxetan-3-yl)piperazin-1-yl)phenyl)amino)-1,3,5-triazin-2-yl)benzonitrile], the IC50 against TBK1 amounted to 2 nM; at IKKε (setting [1]), 1 nM.

Take `C[C@H]1C[C@H](Oc2ccc(-c3ncnc(Nc4ccc(N5CCN(C6COC6)CC5)cc4)n3)cc2C#N)[C@H](F)CN1C(=O)[C@H]1CCC(=O)N1` [Example 411, 2-(((2S,4S,5R)-5-fluoro-2-methyl-1-((R)-5-oxopyrrolidine-2-carbonyl)piperidin-4-yl)oxy)-5-(4-((4-(4-(oxetan-3-yl)piperazin-1-yl)phenyl)amino)-1,3,5-triazin-2-yl)benzonitrile]: the IC50 at TBK1 was 533 nM; on IKKε (setting [1]), at least 1000 nM.

For `C[C@H]1C[C@H](Oc2ccc(-c3ncnc(Nc4ccc(N5CCN(C6COC6)CC5)cc4)n3)cc2C#N)[C@H](F)CN1C(=O)[C@@H]1CCC(=O)N1` [Example 416, 2-(((2S,4S,5R)-5-fluoro-2-methyl-1-((S)-5-oxopyrrolidine-2-carbonyl)piperidin-4-yl)oxy)-5-(4-((4-(4-(oxetan-3-yl)piperazin-1-yl)phenyl)amino)-1,3,5-triazin-2-yl)benzonitrile], the IC50 at TBK1 stood at 64 nM; on IKKε (setting [1]) it was 124 nM.

For the compound `N#Cc1cc(-c2ncnc(Nc3ccc(N4CCN(C5COC5)CC4)cc3)n2)ccc1O[C@H]1CCN(Cc2nc(=O)[nH][nH]2)C[C@H]1F` [Example 436, 2-(((3R,4S)-3-fluoro-1-((5-oxo-2,5-dihydro-1H-1,2,4-triazol-3-yl)methyl)piperidin-4-yl)oxy)-5-(4-((4-(4-(oxetan-3-yl)piperazin-1-yl)phenyl)amino)-1,3,5-triazin-2-yl)benzonitrile], the IC50 came to 99 nM at IKKε (setting [1]) and 156 nM on hJAK2.

For `N#Cc1cc(-c2ncnc(Nc3ccc(N4CCN(C5COC5)CC4)cc3)n2)ccc1O[C@H]1CCN(C(=O)c2nc(=O)[nH][nH]2)C[C@H]1F` [Example 437, 2-(((3R,4S)-3-fluoro-1-(5-oxo-2,5-dihydro-1H-1,2,4-triazole-3-carbonyl)piperidin-4-yl)oxy)-5-(4-((4-(4-(oxetan-3-yl)piperazin-1-yl)phenyl)amino)-1,3,5-triazin-2-yl)benzonitrile], the results for the IC50 against TBK1 and at IKKε (setting [1]) were 4 nM and 2 nM, respectively.

In the case of `N#Cc1cc(-c2ncnc(Nc3cnn(C(F)F)c3)n2)ccc1O[C@H]1CCN(C(=O)[C@@H](O)CO)C[C@H]1F` [Example 456], the IC50 on TBK1 was determined as 4 nM; at IKKε (setting [1]), 7 nM.

For the compound `C[C@H](O)C(=O)N1CC[C@H](Oc2ccc(-c3ncnc(Nc4cnn(C(F)F)c4)n3)cc2C#N)[C@H](F)C1` [Example 457, 5-(4-((1-(difluoromethyl)-1H-pyrazol-4-yl)amino)-1,3,5-triazin-2-yl)-2-(((3R,4S)-3-fluoro-1-((S)-2-hydroxypropanoyl)piperidin-4-yl)oxy)benzonitrile], the IC50 against TBK1 amounted to 13 nM; at IKKε (setting [1]) it was 20 nM.

Take `N#Cc1cc(-c2ncnc(Nc3ccc(N4CCN5CCOC[C@H]5C4)cc3)n2)ccc1O[C@H]1CCN(C(=O)[C@@H]2CCC(=O)N2)C[C@H]1F` [Example 466, 2-(((3R,4S)-3-fluoro-1-((S)-5-oxopyrrolidine-2-carbonyl)piperidin-4-yl)oxy)-5-(4-((4-((R)-hexahydropyrazino[2,1-c][1,4]oxazin-8(1H)-yl)phenyl)amino)-1,3,5-triazin-2-yl)benzonitrile]: the IC50 on TBK1 was 4 nM; at IKKε (setting [1]), 5 nM.

Regarding `Cc1cc(Nc2ncnc(-c3ccc(O[C@@H]4CCC(=O)NC4)c(C#N)c3)n2)ccc1N1CCN(C2COC2)CC1` [Example 532, (R)-5-(4-((3-methyl-4-(4-(oxetan-3-yl)piperazin-1-yl)phenyl)amino)-1,3,5-triazin-2-yl)-2-((6-oxopiperidin-3-yl)oxy)benzonitrile], the results for the IC50 at TBK1 and at IKKε (setting [1]) were 3 nM and 2 nM, respectively.

In the case of `COc1cc(Nc2ncnc(-c3ccc(O[C@H]4CCN(C(=O)[C@@H](O)CO)CC4(F)F)c(C#N)c3)n2)ccc1N1CCN(C2COC2)CC1` [Example 577, 2-(((S)-1-((S)-2,3-dihydroxypropanoyl)-3,3-difluoropiperidin-4-yl)oxy)-5-(4-((3-methoxy-4-(4-(oxetan-3-yl)piperazin-1-yl)phenyl)amino)-1,3,5-triazin-2-yl)benzonitrile], the figures for the IC50 at TBK1 and at IKKε (setting [1]) were 2 nM and 1 nM, respectively.

In the case of `N#Cc1cc(-c2ncnc(Nc3ccc(N4CCN(C5COC5)CC4)cc3)n2)ccc1OCC1(C(N)=O)CC1` [Example 605, 1-((2-cyano-4-(4-((4-(4-(oxetan-3-yl)piperazin-1-yl)phenyl)amino)-1,3,5-triazin-2-yl)phenoxy)methyl)-cyclopropanecarbox-amide], the half-inhibitory concentration (IC50) amounted to 12 nM against TBK1 and 20 nM on IKKε.
